The values below come from ChEMBL document CHEMBL4339240, “Structural Elucidation of Presilphiperfolane-7α,8α-diol, a Bioactive Sesquiterpenoid from Pulicaria vulgaris: A Combined Approach of Solvent-Induced Chemical Shifts, GIAO Calculation of Chemical Shifts, and Full Spin Analysis” (J Nat Prod, 2019).

A short description of series [1]: Toxicity in Artemia salina by brine shrimp lethality assay. Conditions: in vivo.
The nature of series [2]: Toxicity in mouse assessed as induction of mortality. Particulars: in vivo.

Bounds are passed on as bounds.

The term LC50 denotes the concentration lethal to half of the exposed cells or organisms. Low readings indicate a more lethal substance, high ones a less lethal substance. A word on the LD50: it is the dose at which mortality reaches 50%.

As for `O=C1C[C@@H]2OCC=C3CN4CC[C@]56c7ccccc7N1[C@H]5[C@H]2[C@H]3C[C@H]46.O=S(=O)(O)O`, the LC50 in series [1] amounted to 200 µM. Further, the median lethal dose (LD50) in series [2] was below 2 mg/kg.
